# Tested on: peripheral blood mononuclear cells (PBMCs)
# Assay: IFN-γ ELISPOT assay (ex vivo) with subject PBMCs
# Type: cell-based, human
# Details: Table 1, HTAPPs; response in ELISPOT experiments
# Method: IFNγ ELISpot analysis (for protocol see A. Lalvani, R. Brookes, S. Hambleton, W. J. Britton, A. V. S. Hill, A. J. McMichael, J Exp Med 1997; 186 (6): 859-865) was performed ex vivo (without further in vitro culturing for expansion) using PBMCs depleted of CD4+ and enriched for CD8+ T cells (CD8+ effectors), or depleted of CD8+ and enriched for CD4+ T cells (CD4+ effectors). Tests were performed in duplicate and with a positive and negative control, Multiscreen filter plates (Merck Millipore) pre-coated with IFNγ-specific antibodies (ELISpotPro kit, Mabtech). 267.000 Cells were used per plate. Plates were scanned using an AID Classic Robot ELISPOT Reader and analyzed by AID ELISPOT 7.0 software (AID Autoimmun Diagnostika). Antigen Peptides (except negative and positive control group) were done in duplicates, spot counts were taken as mean values of each duplicate.
# The immunogenicity of each of the six peptides was analyzed by IFN-γ secretion by subject peripheral blood mononuclear cells (PBMCs) using ELIspot assay. […]
# The immunogenicity of each peptide was assessed in peripheral blood mononuclear cells (PBMCs) from patients and using the IFN-γ-ELISPOT assay. ELISPOT results were considered positive if the number of spots was at least 2-fold higher than the negative control (medium) and at least 50 spots were detected. […] We also tested the effect of delivery aiding peptides (DACP-1) and peptide extension by overlapping tandemization and tandemization on the immunogenicity of the epitopes.
row,Substance,Elispot [nspots/pM]
1,1 (KLVVVGAVGVGKSALTI) [compound 1],"32,5 nspots/pM"
2,2 (LANSPDLSHLAYYVTKVKEEDAF) [compound 2],"419,5 nspots/pM"
3,3 (LQEFRRFQDPGRIVAIV) [compound 3],"246,0 nspots/pM"
4,4 (ETNFKSLFHDLFQKVEE) [compound 4],"233,5 nspots/pM"
5,5 (IKPRILGFDTPHYWLC) [compound 5],"267,5 nspots/pM"
6,6 (NVGLSAVCTYNLSTAAAYCIHSINLHNFSNSVL) [compound 6],"330,5 nspots/pM"
7,8 (KKIRKPRTIYSSLQLQAAAYGIYDALFDIESKVDPSK) [compound 8],"351,5 nspots/pM"
8,9 (LPVMLLIVARPVKLAAFPTSLSD) [compound 9],"289,5 nspots/pM"
9,10 (LFKDLGLPARTVSTTF) [compound 10],"143,5 nspots/pM"
10,11 (SPLTGGNMAF) [compound 11],"145,5 nspots/pM"
11,13 (LSKNLVAQISALALQLAAYGNSITGIISSVLGHIS) [compound 13],205 nspots/pM
12,14 (SPRQCSSWTLAAYKLAAFPTSL) [compound 14],"137,5 nspots/pM"
13,16 (RERRVASWAMSFERL) [compound 16],"326,5 nspots/pM"
14,17 (QSYPGSASLAAYSGMPRISKL) [compound 17],"202,5 nspots/pM"

# Same assay, conditions: Table 2, HTAPP-DACP; response in ELISPOT experiments
row,Substance,Elispot [nspots/pM]
1,18 (KLVVVGAVGVGKSALTIRQIKIWFQNRRMKWKK) [compound 18],"447,5 nspots/pM"
2,19 (LANSPDLSHLAYYVTKVKEEDAFRQIKIWFQNRRMKWKK) [compound 19],"430,5 nspots/pM"
3,20 (LQEFRRFQDPGRIVAIVRQIKIWFQNRRMKWKK) [compound 20],"500,0 nspots/pM"
4,21 (ETNFKSLFHDLFQKVEERQIKIWFQNRRMKWKK) [compound 21],"334,0 nspots/pM"
5,22 (IKPRILGFDTPHYWLCRQIKIWFQNRRMKWKK) [compound 22],"477,0 nspots/pM"
6,23 (MLFSNITPKAAYSPLTGGNMAFRQIKIWFQNRRMKWKK) [compound 23],"285,0 nspots/pM"
7,24 (RERRVASWAMSFERLRQIKIWFQNRRMKWKK) [compound 24],"436,0 nspots/pM"
8,25 (RQRLALEAEKAAYEERGAAEALSVVRQIKIWFQNRRMKWKK) [compound 25],"317,5 nspots/pM"
9,26 (IPDEYGNTALHYAIYNEDKLMRQIKIWFQNRRMKWKK) [compound 26],"347,5 nspots/pM"
10,27 (LFKDLGLPARTVSTTFRQIKIWFQNRRMKWKK) [compound 27],"196,0 nspots/pM"
11,28 (SPRQCSSWTLAAYKLAAFPTSLRQIKIWFQNRRMKWKK) [compound 28],"320,0 nspots/pM"
12,29 (HRCATITHLLAAYYLVLNFNKKRQIKIWFQNRRMKWKK) [compound 29],"342,5 nspots/pM"
13,30 (KDYSVLYVVPGPVRFQRQIKIWFQNRRMKWKK) [compound 30],"234,0 nspots/pM"
14,31 (QSYPGSASLAAYSGMPRISKLRQIKIWFQNRRMKWK) [compound 31],"415,0 nspots/pM"

# Same assay, conditions: Table 4, HTAPP-DACP related to group therapy
row,Substance,Elispot [nspots/pM]
1,32 (AAKALMSAFYTFRYPLSLRQIKIWFQNRRMKWKK) [compound 32],"75,8 nspots/pM"
2,33 (ATYLWWVNNQSLPVSPRAAYLLLTASLLTFWNPRQIKIWFQNRRMKWKK) [compound 33],"271,7 nspots/pM"
3,34 (DSTPPPGTRVLAMAIYKQSQRQIKIWFQNRRMKWKK) [compound 34],"35,8 nspots/pM"
4,35 (EYFMKQMNDARHGGWTTKMDRQIKIWFQNRRMKWKK) [compound 35],"20,0 nspots/pM"
5,36 (EYKLVVVGAVGVGKSALTIQRQIKIWFQNRRMKWKK) [compound 36],140 nspots/pM
6,37 (GACRHGDRCSRLHNKPTFSRQIKIWFQNRRMKWKK) [compound 37],"47,5 nspots/pM"
7,40 (HTLYGHTSTVCCMHLHEKRVRQIKIWFQNRRMKWKK) [compound 40],"95,0 nspots/pM"
8,41 (HTLYGHTSTVHCMHLHEKRVRQIKIWFQNRRMKWKK) [compound 41],"39,2 nspots/pM"
9,42 (ICLTSTVQLIMQLMPFGCLLRQIKIWFQNRRMKWKK) [compound 42],"20,8 nspots/pM"
10,43 (IGHKVDAVFMKDGFFYFFHGTRQYRQIKIWFQNRRMKWKK) [compound 43],"134,2 nspots/pM"
11,44 (KAISTRDPLSKITEQEKDFLWRQIKIWFQNRRMKWKK) [compound 44],"103,3 nspots/pM"
12,45 (KIGDFGLATEKSRWSGSHQRQIKIWFQNRRMKWKK) [compound 45],"55,0 nspots/pM"
13,46 (KLVVVGACGVGKSALTIQLIQNHRQIKIWFQNRRMKWKK) [compound 46],"54,2 nspots/pM"
14,47 (KLVVVGADGVGKSALTIQLIQNHRQIKIWFQNRRMKWKK) [compound 47],"120,0 nspots/pM"
15,48 (KVKIPVAIKTSPKANKEIRQIKIWFQNRRMKWKK) [compound 48],"39,2 nspots/pM"
16,49 (LLDILDTAGHEEYSAMRDQRQIKIWFQNRRMKWKK) [compound 49],"161,7 nspots/pM"
17,50 (LLGRNSFEVCVCACPGRDRRQIKIWFQNRRMKWKK) [compound 50],"256,7 nspots/pM"
18,51 (LLGRNSFEVHVCACPGRDRRQIKIWFQNRRMKWKK) [compound 51],"264,2 nspots/pM"
19,52 (LLGRNSFEVLVCACPGRDRRQIKIWFQNRRMKWKK) [compound 52],"275,0 nspots/pM"

# Same assay, conditions: Table 5, HTAPP-DACP related to group therapy
row,Substance,Elispot [nspots/pM]
1,53 (MAQYLSTLLLLLATLAVALRQIKIWFQNRRMKWKK) [compound 53],"190,8 nspots/pM"
2,54 (MLPQIPFLLLVSLNLVHGVFRQIKIWFQNRRMKWKK) [compound 54],"246,7 nspots/pM"
3,55 (MTEYKLVVVGARGVGKSALRQIKIWFQNRRMKWKK) [compound 55],"44,2 nspots/pM"
4,56 (MTEYKLVVVGASGVGKSALTIQLIQNHRQIKIWFQNRRMKWKK) [compound 56],"56,7 nspots/pM"
5,57 (NSSCMGGMNQRPILTIITLRQIKIWFQNRRMKWKK) [compound 57],"102,5 nspots/pM"
6,58 (NSSCMGGMNWRPILTIITLRQIKIWFQNRRMKWKK) [compound 58],"228,3 nspots/pM"
7,59 (PSDQDLLRCCVLTSGIFETRQIKIWFQNRRMKWKK) [compound 59],"100,8 nspots/pM"
8,60 (PSDQDLLRCHVLTSGIFETRQIKIWFQNRRMKWKK) [compound 60],"163,3 nspots/pM"
9,61 (QHVKITDFGRAKLLGAEEKRQIKIWFQNRRMKWKK) [compound 61],"76,7 nspots/pM"
10,62 (RVCACPGRDWRTEEENLRKRQIKIWFQNRRMKWKK) [compound 62],"279,2 nspots/pM"
11,63 (SQHMTEVVRHCPHHERCSDRQIKIWFQNRRMKWKK) [compound 63],"88,3 nspots/pM"
12,64 (STRDPLSEITKQEKDFLWSHRQIKIWFQNRRMKWKK) [compound 64],"80,8 nspots/pM"
13,65 (TEYKLVVVGAAGVGKSALTIQRQIKIWFQNRRMKWKK) [compound 65],"22,5 nspots/pM"
14,66 (TIHYNYMCNSSCMGSMNRRPILTIRQIKIWFQNRRMKWKK) [compound 66],"13,3 nspots/pM"
15,67 (YGIPFIETSTKTRQRVEDARQIKIWFQNRRMKWKK) [compound 67],"248,3 nspots/pM"
16,68 (YKLVVVGAGDVGKSALTIQLIQNHFVDRQIKIWFQNRRMKWKK) [compound 68],"154,2 nspots/pM"

# Same assay, conditions: Table 6, further HTAPPs, HTAPP-DACPs and reference sequences
row,Substance,Elispot [nspots/pM]
1,69 (VAFLGCPGFAGVLQT) [compound 69],"149,0 nspots/pM"
2,70 (ESGCEERGAAMIQTVDPAAHRQIKIWFQNRRMKWKK) [compound 70],"153,5 nspots/pM"
3,71 (QRQLNTALPQPFREAPAYSNRQIKIWFQNRRMKWKK) [compound 71],"270,5 nspots/pM"
4,72 (MLFSNITPK) [compound 72],"148,0 nspots/pM"
5,74 (SPITSVLSADLFPKA) [compound 74],"128,5 nspots/pM"
6,75 (SAANIRALNVPPSLA) [compound 75],"196,0 nspots/pM"
7,76 (PQELWHFLTQNLSLPN) [compound 76],"470,5 nspots/pM"
8,77 (KKIRKPRTIYSSLQLQA) [compound 77],"148,0 nspots/pM"
9,78 (GIYDALFDIESKVDPSK) [compound 78],"134,5 nspots/pM"
10,79 (AIYNEDKLMAKALLLYGADIERQIKIWFQNRRMKWKK) [compound 79],"242,5 nspots/pM"
11,80 (NFMLNQNVMLSVKGITKNVHTRQIKIWFQNRRMKWKK) [compound 80],"232,5 nspots/pM"
12,81 (LTPKKLQCVDLHVISNDRQIKIWFQNRRMKWKK) [compound 81],"272,5 nspots/pM"
13,82 (LEKLYLYFNKISKIENLEKLIKRQIKIWFQNRRMKWKK) [compound 82],"305,0 nspots/pM"
